Data set [1] in a line: Elution of gentamicin sulphate from PLGA-coated, abrasively blasted porous beaded titanium hip stem in phosphate saline buffer (Abbott TDx/FLX). The following applies: Summit hip stem with Porocoat finish, GS plus PLGA overcoat, blasted with MCD/HA; immersed in 300 ml phosphate saline buffer. The format is physicochemical. On the procedure: This example describes the modification of an implantable titanium hip stem containing a porous beaded surface. A Summit hip stem (DePuy) with a Porocoat finish was used as the substrate. The active chosen for study was gentamicin sulphate (GS).
The stem was first coated GS by dissolving 0.6 g of GS in 10 ml of water and applying the solution to the surface drop wise. In total, 0.1575 g of GS was added to the surface. Once dry, a polymer overcoat was applied by adding a solution of PLGA (3.5 g of PLGA in 10 ml of dichloromethane) dropwise and allowing to dry The coated hip stem was then abrasively blasted as per WO2008/033867 to remove the outer layer of polymer. Blasting was carried out in a Comco Standard Lathe operating at a pressure of 100 psi. MCD abrasive grit (Supplied by Himed, New York) was used as the abrasive and HA (SAI, France) was used as the dopant. Each powder was fed in a separate stream at the surface at a pressure of 100 psi and with an offset distance of 15-25 mm. The blast device was moved over the surface at a speed of approximately 100 mm/sec.
Elution of the drug from the surface was evaluated by immersing the entire hip stem in 300 ml of phosphate saline buffer and measuring drug concentration in solution using an Abbott TDx/FLX system. […]

Data set [2] is described as follows: Elution of vancomycin from beaded Ti coupons with zero, one or two PLGA layers in PBS buffer (UV/VIS). The format is physicochemical. The following applies: beaded Ti coupon. On the procedure: A 25 mm diameter coupon with a sintered titanium beaded surface was used as the test substrate. […] Vancomycin was dissolved in water to produce a solution of 0.5 g/25 ml. 0.5 ml of this solution was then applied in droplet form to the surface of each sample coupon and allowed to dry in an oven at 40° C. This technique was repeated three times to give a total loading of 1.5 ml of the vancomycin solution per coupon.
PLGA polymer (2.5 g) was dissolved in 50 mL of dichloromethane solvent. The polymer solution was added to the surface of the drug loaded coupons in a dropwise fashion similar to that employed to deploy the drug. Again, three applications of 0.5 ml were applied to produce a single layer of polymer with sufficient time being allowed between each application to allow the solvent to evaporate.
To investigate the effect of polymer coating thickness, a second set of three PLGA solutions were applied to form a batch of samples with 6 applications of polymer in total. This produced a sample with twice the coating thickness and is therefore herein referred to as having two layers of polymer.
All samples were then treated with an abrasive blasting process as described in WO2008/033867. The equipment platform was a Comco Standard Lathe. Two nozzles were employed to deliver an abrasive and a dopant respectively. The abrasive chosen was MCD 106 microns (Himed, NY, USA) and the dopant was hydroxyapatite (25/60 microns, SAI, France). The abrasive was delivered at a pressure of 75 psi and the dopant was delivered at 90 psi. The substrate was moved at a speed of 13 mm/sec relative to the nozzles.
Drug elution studies were carried out in PBS buffer solution and drug concentrations were determined using an Agilent 8453 UV/VIS spectrophotometer system. The elution profile of samples with zero, one and two layers of polymer were determined over 48 hours and the % vancomycin elution was determined. […] In the absence of any polymer coating, the drug had effectively eluted form the surface within 30 minutes and no further elution was detected.

Consider gentamicin sulphate, for which, in data set [1], the “duration of gentamicin release” value is 4 days and the “time in which the bulk of the drug is released” value is listed as “within the first day”.
Take `CN[C@H](CC(C)C)C(=O)N[C@H]1C(=O)N[C@@H](CC(N)=O)C(=O)N[C@H]2C(=O)N[C@H]3C(=O)N[C@H](C(=O)N[C@H](C(=O)O)c4cc(O)cc(O)c4-c4cc3ccc4O)[C@H](O)c3ccc(c(Cl)c3)Oc3cc2cc(c3O[C@@H]2O[C@H](CO)[C@@H](O)[C@H](O)[C@H]2O[C@H]2C[C@](C)(N)[C@H](O)[C@H](C)O2)Oc2ccc(cc2Cl)[C@H]1O` [vancomycin]: the “time by which the drug had effectively eluted from the surface” value in data set [2] (no polymer coating (zero layers)) is not above 30 min. The “time to complete elution” value in data set [2] (single layer of polymer (3 applications of PLGA)) was “up to 10 hours”. The compound also came in with an elution duration in data set [2] (twice the thickness of polymer (6 applications of PLGA, two layers)) of 24 h.

Values taken from patent US8765211B2, “Method for coating metal implants with therapeutic mixtures” (Enbio Limited, priority 2009, dated 2014).
